Source: ChEMBL document CHEMBL6127136, “Discovery of 1-(Phenylsulfonyl)-1,2,3,4-tetrahydroquinoline Derivative as Orally Bioavailable and Safe RORγt Inverse Agonists for Potential Treatment of Rheumatoid Arthritis” (J Med Chem, 2024)
pIC50: −log10 of the molar value. Calls of active or inactive are those of the source. No cut-off for these calls is given here.

What was measured:
[1] = target: T1, Nuclear receptor ROR-gamma (Homo sapiens, UniProt P51449); experiment: Inverse agonist activity at N-terminal 6-His-tagged/APC-labeled human RORgammat LBD extracted from Escherichia coli assessed as inhibition of europium-labeled SRC-1 recruitment incubated for 3 hrs by TR-FRET analysis
T1 sequence (P51449 whole entry): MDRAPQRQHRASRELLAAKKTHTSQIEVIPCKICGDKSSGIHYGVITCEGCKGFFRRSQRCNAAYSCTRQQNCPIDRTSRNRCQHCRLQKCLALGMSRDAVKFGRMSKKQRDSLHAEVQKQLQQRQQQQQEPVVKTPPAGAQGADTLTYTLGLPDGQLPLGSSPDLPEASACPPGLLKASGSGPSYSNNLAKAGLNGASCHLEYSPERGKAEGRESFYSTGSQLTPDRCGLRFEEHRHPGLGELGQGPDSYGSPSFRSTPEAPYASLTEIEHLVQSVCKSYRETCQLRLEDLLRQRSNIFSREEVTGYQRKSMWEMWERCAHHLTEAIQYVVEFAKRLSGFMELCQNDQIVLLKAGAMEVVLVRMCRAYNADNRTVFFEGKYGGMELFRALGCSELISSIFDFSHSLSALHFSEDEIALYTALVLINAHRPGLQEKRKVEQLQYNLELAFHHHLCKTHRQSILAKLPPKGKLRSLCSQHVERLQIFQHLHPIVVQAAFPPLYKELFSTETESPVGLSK

[2] = target: T1, Nuclear receptor ROR-gamma; experiment: Inverse agonist activity at GAL4 DNA-binding domain fused RORgamma (unknown origin) transfected in HEK293T cells co-transfected with GAL4-promoter driven luciferase reporter gene assessed as inhibition of RORgammat transcription incubated for 18 to 20 hrs by plate reader analysis; assay type: cell-based
[3] = Half-life in male DBA/1 mouse at 5 mg/kg, iv measured after 24 hrs by HPLC analysis; assay type: ADME, organism-based; details: in vivo
[4] = Tmax in male DBA/1 mouse at 5 mg/kg, iv measured after 24 hrs by HPLC analysis; assay type: ADME, organism-based; details: in vivo
[5] = Cmax in male DBA/1 mouse at 5 mg/kg, iv measured after 24 hrs by HPLC analysis; assay type: ADME, organism-based; details: in vivo
[6] = AUC (0 to t) in male DBA/1 mouse at 5 mg/kg, iv measured after 24 hrs by HPLC analysis; assay type: ADME, organism-based; details: in vivo
[7] = AUC (0 to infinity) in male DBA/1 mouse at 5 mg/kg, iv measured after 24 hrs by HPLC analysis; assay type: ADME, organism-based; details: in vivo
[8] = Clearance in male DBA/1 mouse at 5 mg/kg, iv measured after 24 hrs by HPLC analysis; assay type: ADME, organism-based; details: in vivo
[9] = Half-life in male DBA/1 mouse at 20 mg/kg, po measured after 24 hrs by HPLC analysis; assay type: ADME, organism-based; details: in vivo
[10] = Tmax in male DBA/1 mouse at 20 mg/kg, po measured after 24 hrs by HPLC analysis; assay type: ADME, organism-based; details: in vivo
[11] = Cmax in male DBA/1 mouse at 20 mg/kg, po measured after 24 hrs by HPLC analysis; assay type: ADME, organism-based; details: in vivo
[12] = AUC (0 to t) in male DBA/1 mouse at 20 mg/kg, po measured after 24 hrs by HPLC analysis; assay type: ADME, organism-based; details: in vivo
[13] = AUC (0 to infinity) in male DBA/1 mouse at 20 mg/kg, po measured after 24 hrs by HPLC analysis; assay type: ADME, organism-based; details: in vivo
[14] = Oral bioavailability in male DBA/1 mouse at 20 mg/kg measured after 24 hrs by HPLC analysis; assay type: ADME, organism-based; details: in vivo
[15] = Toxicity in imiquimod-induced psoriasis-like skin inflammation Balb/c mouse model assessed as change in body weight at 10 mg/kg, IG preadministered with IMQ for 3 days followed by compound administration from day 4 and measured on day 14; assay type: organism-based; details: in vivo, po, 264 h, time 11 day
Mus musculus [16] = experiment: Antiinflammatory activity against imiquimod-induced psoriasis-like skin inflammation in Balb/c mouse model assessed as reduction in mononuclear cell infiltration in skin at 10 mg/kg, IG preadministered with IMQ for 3 days followed by compound administration from day 4 and measured on day 14 by H and E staining based analysis; assay type: functional, organism-based; details: time 11.0 day
Mus musculus [17] = experiment: Antiinflammatory activity against imiquimod-induced psoriasis-like skin inflammation in Balb/c mouse model assessed as reduction in inflammatory cell infiltration in skin at 10 mg/kg, IG preadministered with IMQ for 3 days followed by compound administration from day 4 and measured on day 14 by H and E staining based analysis; assay type: functional, organism-based; details: time 11.0 day
Mus musculus [18] = experiment: Antiinflammatory activity against imiquimod-induced psoriasis-like skin inflammation in Balb/c mouse model assessed as attenuation of skin layer thickening at 10 mg/kg, IG preadministered with IMQ for 3 days followed by compound administration from day 4 and measured on day 14 by H and E staining based analysis; assay type: functional, organism-based; details: time 11.0 day
Mus musculus [19] = experiment: Antiinflammatory activity against imiquimod-induced psoriasis-like skin inflammation in Balb/c mouse model assessed as decrease in dermal telangiectasia at 10 mg/kg, IG preadministered with IMQ for 3 days followed by compound administration from day 4 and measured on day 14 by H and E staining based analysis; assay type: functional, organism-based; details: time 11.0 day
Mus musculus [20] = experiment: Antiinflammatory activity against imiquimod-induced psoriasis-like skin inflammation in Balb/c mouse model assessed as decrease in IL-17A expression in skin at 10 mg/kg, IG preadministered with IMQ for 3 days followed by compound administration from day 4 and measured on day 14 by immunohistochemical analysis; assay type: functional, organism-based; details: time 11.0 day
Mus musculus [21] = experiment: Antiinflammatory activity against imiquimod-induced psoriasis-like skin inflammation in Balb/c mouse model assessed as decrease in IL-17F expression in skin at 10 mg/kg, IG preadministered with IMQ for 3 days followed by compound administration from day 4 and measured on day 14 by immunohistochemical analysis; assay type: functional, organism-based; details: time 11.0 day
Mus musculus [22] = experiment: Antiinflammatory activity against imiquimod-induced psoriasis-like skin inflammation in Balb/c mouse model assessed as decrease in IL-23 expression in skin at 10 mg/kg, IG preadministered with IMQ for 3 days followed by compound administration from day 4 and measured on day 14 by immunohistochemical analysis; assay type: functional, organism-based; details: time 11.0 day
[23] = Toxicity in chicken type II collagen-induced arthritis DBA/1 mouse model assessed as behavioral abnormalities at 20 mg/kg/day, po measured after 42 days; assay type: organism-based; details: in vivo, 1008 h, time 42 day
[24] = Toxicity in chicken type II collagen-induced arthritis DBA/1 mouse model assessed as body weight loss at 20 mg/kg/day, po measured after 42 days; assay type: organism-based; details: in vivo, 1008 h, time 42 day
Mus musculus [25] = experiment: Antiarthritic activity in chicken type II collagen-induced arthritis DBA/1 mouse model assessed as reduction in clinical score at 20 mg/kg/day, po measured after 42 days; assay type: functional, organism-based; details: time 42.0 day
[26] = Toxicity in chicken type II collagen-induced arthritis DBA/1 mouse model assessed as increase in thymic cortex to medulla ratio at 20 mg/kg/day, po administered for 2 weeks by H and E staining based analysis; assay type: organism-based; details: in vivo, 336 h
[27] = Toxicity in chicken type II collagen-induced arthritis DBA/1 mouse model assessed as signs of thymic enlargement at 20 mg/kg/day, po administered for 2 weeks by H and E staining based analysis; assay type: organism-based; details: in vivo, 336 h
[28] = Toxicity in chicken type II collagen-induced arthritis DBA/1 mouse model assessed as signs of lymphoma at 20 mg/kg/day, po administered for 2 weeks by H and E staining based analysis; assay type: organism-based; details: in vivo, 336 h
[29] = Toxicity in chicken type II collagen-induced arthritis DBA/1 mouse model assessed as morphological changes in thymocytes at 20 mg/kg/day, po administered for 2 weeks by H and E staining based analysis; assay type: organism-based; details: in vivo, 336 h
Mus musculus [30] = experiment: Antiarthritic activity in chicken type II collagen-induced arthritis DBA/1 mouse model assessed as improvement in arthritic symptoms at 20 mg/kg/day, po administered for 2 weeks by H and E staining based analysis; assay type: functional, organism-based
Mus musculus [31] = experiment: Antiarthritic activity in chicken type II collagen-induced arthritis DBA/1 mouse model assessed as reduction in fore paw erythema at 20 mg/kg/day, po administered for 2 weeks by H and E staining based analysis; assay type: functional, organism-based
Mus musculus [32] = experiment: Antiarthritic activity in chicken type II collagen-induced arthritis DBA/1 mouse model assessed as reduction in fore paw swelling at 20 mg/kg/day, po administered for 2 weeks by H and E staining based analysis; assay type: functional, organism-based
Mus musculus [33] = experiment: Antiarthritic activity in chicken type II collagen-induced arthritis DBA/1 mouse model assessed as reduction in fore paw thickness at 20 mg/kg/day, po administered for 2 weeks by H and E staining based analysis; assay type: functional, organism-based
Mus musculus [34] = experiment: Antiarthritic activity in chicken type II collagen-induced arthritis DBA/1 mouse model assessed as reduction in hind paw erythema at 20 mg/kg/day, po administered for 2 weeks by H and E staining based analysis; assay type: functional, organism-based
Mus musculus [35] = experiment: Antiarthritic activity in chicken type II collagen-induced arthritis DBA/1 mouse model assessed as reduction in hind paw swelling at 20 mg/kg/day, po administered for 2 weeks by H and E staining based analysis; assay type: functional, organism-based
Mus musculus [36] = experiment: Antiarthritic activity in chicken type II collagen-induced arthritis DBA/1 mouse model assessed as reduction in hind paw thickness at 20 mg/kg/day, po administered for 2 weeks by H and E staining based analysis; assay type: functional, organism-based

CCc1ccc(N(CC(C)C)S(=O)(=O)c2ccc(OCC3CCOCC3)c(CO)c2)cc1 [GSK2981278]
pIC50 [1]: 8.60
pIC50 [2]: 7.87
half-life [3]: 3.81 h
Tmax [4]: 4.98 min
Cmax [5]: 1280 ng/mL
AUC(0-t) at 24 h [6]: 1270 ng·h/mL
AUC(0-inf) [7]: 1310 ng·h/mL
clearance [8]: 64.2 mL/min/kg
half-life [9]: 4.99 h
Tmax [10]: 0.417 h
Cmax [11]: 99.3 ng/mL
AUC(0-t) at 24 h [12]: 299 ng·h/mL
AUC(0-inf) [13]: 326 ng·h/mL
bioavailability [14]: 6.2%
Activity [15]: Non-Toxic
Activity (Mus musculus [16]): Active
Activity (Mus musculus [17]): Active
Activity (Mus musculus [18]): Active
Activity (Mus musculus [19]): Active
Activity (Mus musculus [20]): Active
Activity (Mus musculus [21]): Active
Activity (Mus musculus [22]): Active
Activity [23]: Non-Toxic
Activity [24]: Non-Toxic
Activity (Mus musculus [25]): Active
Activity [26]: Toxic
Activity [27]: Non-Toxic
Activity [28]: Non-Toxic
Activity [29]: Non-Toxic
Activity (Mus musculus [30]): Active
Activity (Mus musculus [31]): Active
Activity (Mus musculus [32]): Active
Activity (Mus musculus [33]): Active
Activity (Mus musculus [34]): Active
Activity (Mus musculus [35]): Active
Activity (Mus musculus [36]): Active
